Source: PubChem BioAssay (NCI)
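Exposure lasted 48 hours, with cells grown in 96-well plates and compounds tested at five concentrations. TGI is the concentration that stops growth completely.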

What was measured:
Test in all cases: growth of human tumour cells (NCI), 48 h
786-0 renal = system: 786-0 renal
A498 renal = system: A498 renal
A549 NSCLC = system: A549 NSCLC
CAKI-1 renal = system: CAKI-1 renal
CCRF-CEM leukemia = system: CCRF-CEM leukemia
COLO 205 colon = system: COLO 205 colon
DMS 114 small cell lung = system: DMS 114 small cell lung
DMS 273 small cell lung = system: DMS 273 small cell lung
HCC-2998 colon = system: HCC-2998 colon
HCT-116 colon = system: HCT-116 colon
HCT-15 colon = system: HCT-15 colon
HL-60(TB) leukemia = system: HL-60(TB) leukemia
HOP-62 NSCLC = system: HOP-62 NSCLC
HOP-92 NSCLC = system: HOP-92 NSCLC
HT29 colon = system: HT29 colon
IGROV1 ovarian = system: IGROV1 ovarian
K-562 leukemia = system: K-562 leukemia
KM12 colon = system: KM12 colon
KM20L2 colon = system: KM20L2 colon
M14 melanoma = system: M14 melanoma
M19-MEL melanoma = system: M19-MEL melanoma
MALME-3M melanoma = system: MALME-3M melanoma
MOLT-4 leukemia = system: MOLT-4 leukemia
NCI-H226 lung = system: NCI-H226 lung
NCI-H23 lung = system: NCI-H23 lung
NCI-H460 lung = system: NCI-H460 lung
OVCAR-3 ovarian = system: OVCAR-3 ovarian
OVCAR-4 ovarian = system: OVCAR-4 ovarian
OVCAR-5 ovarian = system: OVCAR-5 ovarian
OVCAR-8 ovarian = system: OVCAR-8 ovarian
RPMI-8226 leukemia = system: RPMI-8226 leukemia
RXF 393 renal = system: RXF 393 renal
RXF-631 renal = system: RXF-631 renal
SF-268 CNS = system: SF-268 CNS
SF-295 CNS = system: SF-295 CNS
SF-539 CNS = system: SF-539 CNS
SK-MEL-2 melanoma = system: SK-MEL-2 melanoma
SK-MEL-28 melanoma = system: SK-MEL-28 melanoma
SK-MEL-5 melanoma = system: SK-MEL-5 melanoma
SK-OV-3 ovarian = system: SK-OV-3 ovarian
SN12C renal = system: SN12C renal
SNB-19 CNS = system: SNB-19 CNS
SNB-75 CNS = system: SNB-75 CNS
SNB-78 CNS = system: SNB-78 CNS
TK-10 renal = system: TK-10 renal
U251 CNS = system: U251 CNS
UACC-257 melanoma = system: UACC-257 melanoma
UACC-62 melanoma = system: UACC-62 melanoma
UO-31 renal = system: UO-31 renal
ACHN renal = system: ACHN renal
DLD-1 colon = system: DLD-1 colon
EKVX NSCLC = system: EKVX NSCLC
HOP-18 NSCLC = system: HOP-18 NSCLC
LOX IMVI melanoma = system: LOX IMVI melanoma
LXFL 529 NSCLC = system: LXFL 529 NSCLC
NCI-H522 lung = system: NCI-H522 lung
SR leukemia = system: SR leukemia
SW-620 colon = system: SW-620 colon
XF 498 CNS = system: XF 498 CNS

Measured: TGI

Cc1cc(C)nc(NS(=O)(=O)c2ccc(Nc3c4ccccc4nc4c(C(=O)N5CCN(CCO)CC5)ccc(Cl)c34)cc2)n1
not listed: ACHN renal | DLD-1 colon | EKVX NSCLC | HOP-18 NSCLC | LOX IMVI melanoma | LXFL 529 NSCLC | NCI-H522 lung | SR leukemia | SW-620 colon | XF 498 CNS
> 100 µM: all other assays above

CCc1cccc(C)c1NC(=O)CCc1nnc(SC)o1
not listed: NCI-H226 lung | RXF-631 renal
> 100 µM: all other assays above

S=c1nc(COc2ccc(Cl)cc2)[nH][nH]1
not listed: EKVX NSCLC | HOP-18 NSCLC | SR leukemia | XF 498 CNS
> 100 µM: all other assays above
